From US6107017A, “Photographic elements containing high-boiling diester solvents” (Eastman Kodak Company, priority 1998, dated 2000)

What was measured:
Type in all cases: physicochemical
[1] = Visible absorption maximum (Lambda max) of Dye C1 in the high-boiling solvent, as measure of solvent polarity/polarizability; settings: Perkin Elmer Lambda 2S spectrophotometer
Method: (§1) Water solubilities were obtained from plots of light scattering (at 500 nm) of dispersions of the high-boiling solvent in water versus concentration. The light scattering density goes to zero at the solubility limit, when dispersions of high-boiling solvent are diluted. […] Viscosities reported in Table I were measured using a Brookfield cone/plate viscometer. Solvents of high polarity and/or polarizability are often needed to provide suitably bathochromic hues for the types of dyes commonly encountered in color photographic materials. Dye C1, whose structure is provided after Table I, is representative of such dyes. The visible absorption maxima (Lambda max) values for C1, measured with a Perkin Elmer Lambda 2S spectrophotometer, are provided in Table I as measures of solvent polarity/polarizability.

[2] = Water solubility from light scattering (at 500 nm) of dispersions of the high-boiling solvent in water
Method: as §1

[3] = Viscosity measured using a Brookfield cone/plate viscometer
Method: Water solubilities were obtained from plots of light scattering (at 500 nm) of dispersions of the high-boiling solvent in water versus concentration. The light scattering density goes to zero at the solubility limit, when dispersions of high-boiling solvent are diluted. Values of log P calculated using MEDCHEM version 3.54 are also given in Table I and serve as rough indicators of water solubility. Viscosities reported in Table I were measured using a Brookfield cone/plate viscometer. Solvents of high polarity and/or polarizability are often needed to provide suitably bathochromic hues for the types of dyes commonly encountered in color photographic materials. Dye C1, whose structure is provided after Table I, is representative of such dyes. The visible absorption maxima (Lambda max) values for C1, measured with a Perkin Elmer Lambda 2S spectrophotometer, are provided in Table I as measures of solvent polarity/polarizability.

[4] = Lambda max of the yellow dye produced from Coupler Y-1 on development; settings: yellow dye from Y-1, at a blue density of about 1.0
Method: For this example, Coupler Y-1 (structure below) was dispersed and coated with comparative high-boiling solvent B1 and with high-boiling solvent A2 of this invention. The dispersions were prepared by adding an oil phase containing a 1:1:3 weight ratio of Y-1:high-boiling solvent: ethyl acetate to an aqueous phase containing gelatin and the dispersing agent ALKANOL XC (mixed isomers of triisopropyl-2-naphthalene sulfonic acid, sodium salt, DuPont) in a 10:1 weight ratio. The mixture was then passed through a colloid mill to disperse the oil in the aqueous phase as small particles. On coating, the ethyl acetate auxiliary solvent evaporates. […]
After hardening, samples of each of the films in Table II were given a sensitometric white light exposure and processed using the KODAK FLEXICOLOR C-41 procedure described in Table III. Measurements of status M blue density versus exposure were made for each processed film strip, and photographic contrast (gamma) was determined from the slopes of such plots. […] The gamma value of 2.45 obtained with solvent A2 of this invention in coating B is similar to the gamma value of 2.63 obtained from comparative solvent B1 in coating A. Spectra of the yellow dye produced from Y-1 on development were measured at a blue density of about 1.0 using a Perkin Elmer Lambda 2S spectrophotometer. […]

Lambda max of Dye C1 [1] [nm] | Water Solubility [2] [µg/mL] | Viscosity [3] [centipoise] | SMILES | Lambda max [4] [nm]
672 | 1.2 | 265 | Cc1ccc(C(=O)OCCC(C)OC(=O)c2ccc(C)cc2)cc1 (centres unmarked) [A1] | 
672 | 1.9 | 295 | Cc1cccc(C(=O)OCCC(C)OC(=O)c2cccc(C)c2)c1 (centres unmarked) [A3] | 
673 | 1.5 | 122 | CCCC(COC(=O)c1ccccc1)OC(=O)c1ccccc1 (centres unmarked) [A5] | 
 |  |  | CCCCOC(=O)c1ccccc1C(=O)OCCCC [B1, dibutyl phthalate, reference compound] | 449
661 |  | 6 | CCCCC(CC)COC(=O)c1ccccc1 (centres unmarked) [B3, reference compound] | 
 | 10 |  | O=C(OCCc1ccccc1)c1ccccc1 [B4, reference compound] | 

SMILES | Lambda max of Dye C1 [1] [nm] | Water Solubility [2] [µg/mL] | Viscosity [3] [centipoise] | Lambda max [4] [nm]
CCCCC(COC(=O)c1ccccc1)OC(=O)c1ccccc1 (centres unmarked) [A2] | 672 | 1.1 | 157 | 449
O=C(OCCCCCOC(=O)c1ccccc1)c1ccccc1 [A4] | 674 | 2.4 | 70 | 
